Measurements as given in patent US9238631B2, “Radiolabeled amino acids for diagnostic imaging” (PIRAMAL IMAGING SA, priority 2011, dated 2016).

Target: T1, xCT (SLC7A11) (Homo sapiens, UniProt Q9UPY5)
T1 construct: NCI-H460 tumor cells were co-incubated with the F-18 labeled tracer and several cold derivatives; endogenous in cells; host or cells: NCI-H460 tumor cells
T1 sequence (Q9UPY5 1-501): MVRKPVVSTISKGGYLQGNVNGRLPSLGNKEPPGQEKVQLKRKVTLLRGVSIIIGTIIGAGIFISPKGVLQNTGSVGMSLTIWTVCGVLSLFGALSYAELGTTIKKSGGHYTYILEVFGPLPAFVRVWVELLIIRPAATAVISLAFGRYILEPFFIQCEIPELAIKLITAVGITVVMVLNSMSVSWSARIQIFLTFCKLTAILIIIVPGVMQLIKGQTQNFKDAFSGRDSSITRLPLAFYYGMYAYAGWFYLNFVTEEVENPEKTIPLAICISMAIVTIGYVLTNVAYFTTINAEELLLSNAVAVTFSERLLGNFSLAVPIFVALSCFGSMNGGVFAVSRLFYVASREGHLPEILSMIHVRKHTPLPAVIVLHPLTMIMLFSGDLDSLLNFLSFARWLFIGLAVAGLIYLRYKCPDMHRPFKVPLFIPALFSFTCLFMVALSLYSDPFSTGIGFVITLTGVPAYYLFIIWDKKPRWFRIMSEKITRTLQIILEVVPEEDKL
T1 sequence (P08195 1-529 partner): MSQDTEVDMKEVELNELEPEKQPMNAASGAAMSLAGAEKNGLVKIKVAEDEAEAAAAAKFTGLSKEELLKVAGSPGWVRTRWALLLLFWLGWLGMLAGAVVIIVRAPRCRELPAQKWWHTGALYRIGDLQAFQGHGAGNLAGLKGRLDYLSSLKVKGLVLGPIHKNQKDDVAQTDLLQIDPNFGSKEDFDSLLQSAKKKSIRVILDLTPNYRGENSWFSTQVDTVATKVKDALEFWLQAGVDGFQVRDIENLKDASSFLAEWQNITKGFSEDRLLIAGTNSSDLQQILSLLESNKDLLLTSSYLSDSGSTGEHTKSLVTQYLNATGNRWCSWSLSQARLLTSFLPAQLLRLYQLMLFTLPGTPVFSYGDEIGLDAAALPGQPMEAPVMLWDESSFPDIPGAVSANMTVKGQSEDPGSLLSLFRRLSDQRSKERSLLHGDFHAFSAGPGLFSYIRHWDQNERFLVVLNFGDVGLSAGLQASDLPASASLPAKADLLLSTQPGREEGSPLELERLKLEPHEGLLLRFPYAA
Experiment: Competition profile indicating uptake via xCT (SLC7A11)
Type: cell-based
Conditions: co-incubation with 1 mM cold competitors, NCI-H460 cells
Procedure: For determination of the responsible uptake mechanism, NCI-H460 tumor cells were co-incubated with the F-18 labeled tracer and several cold derivatives. These derivatives were used at a concentration of 1 mM, which is a large excess compared to the tracer. L-Glutamic acid, L-cystine, Carboxyphenylglycine (CPG) were used as competitors. In addition, also D-Glutamic acid, as well as L-aspartic acid and D-aspartic acid were used in this competition experiments. […] The same experiments were performed using [^18F]-1, [^18F]-4, [^18F]-9, [^18F]-8, [^18F]-25 and [^18F]-22.

## N[C@@H](CCC(Cc1ccc(OCC[18F])cc1)C(=O)O)C(=O)O (stereo partly drawn) [[^18F]-12] [(2S)-2-Amino-5-[4-(2-[^18F]fluoroethoxy)benzyl]hexanedioic acid]
  competition profile / uptake mechanism of the tracer: specific uptake
